Assays:
[1] = molecular target: Heat shock protein HSP 90-alpha (Homo sapiens, UniProt P07900); test: Binding affinity for human heat shock protein 90 in scintillation proximity assay
SK-BR-3 = test: Cytotoxicity against SKBr3 cells; format: functional, cell-based; settings: Homo sapiens

SMILES | Kd [1] | IC50 (SK-BR-3)
CO[C@H]1C[C@H](C)CC2=C(NCCN(C)C)C(=O)C=C(NC(=O)/C(C)=C/C=C3/NC(=O)O[C@@H](/C(C)=C/[C@H](C)[C@H]1O)[C@H]3OC)C2=O | > 100000 nM | 4500 nM
CO[C@H]1/C=C\C=C(/C)C(=O)NC2=CC(=O)C(NCCN(C)C)=C(C[C@@H](C)C[C@H](OC)[C@H](O)[C@@H](C)/C=C(\C)[C@@H]1OC(=O)NCC(N)=O)C2=O | > 100000 nM | 1400 nM
CO[C@H]1/C=C\C=C(/C)C(=O)NC2=CC(=O)C(N3CCC3)=C(C[C@@H](C)C[C@H](OC)[C@H](O)[C@@H](C)/C=C(\C)[C@@H]1OC(=O)NN)C2=O | > 100000 nM | 530 nM
CNC(=O)O[C@H]1/C(C)=C/[C@H](C)[C@@H](O)[C@@H](OC)C[C@H](C)CC2=C(NCCN(C)C)C(=O)C=C(NC(=O)/C(C)=C/C=C\[C@@H]1OC)C2=O | > 100000 nM | 420 nM
CONC(=O)O[C@H]1/C(C)=C/[C@H](C)[C@@H](O)[C@@H](OC)C[C@H](C)CC2=C(NCCN(C)C)C(=O)C=C(NC(=O)/C(C)=C/C=C\[C@@H]1OC)C2=O | > 100000 nM | 490 nM
CO[C@H]1/C=C\C=C(/C)C(=O)NC2=CC(=O)C(NCCN(C)C)=C(C[C@@H](C)C[C@H](OC)[C@H](O)[C@@H](C)/C=C(\C)[C@@H]1OC(=O)NCCN(C)C)C2=O | > 100000 nM | 460 nM
CO[C@H]1/C=C\C=C(/C)C(=O)NC2=CC(=O)C(N)=C(C[C@@H](C)C[C@H](OC)[C@H](O)[C@@H](C)/C=C(\C)[C@@H]1OC(N)=O)C2=O | 100 nM | 
CO[C@H]1/C=C\C=C(/C)C(=O)NC2=CC(=O)C(NCCN(C)C)=C(C[C@@H](C)C[C@H](OC)[C@H](O)[C@@H](C)/C=C(\C)[C@@H]1OC(=O)N(C)N)C2=O | > 100000 nM | 2500 nM
CO[C@H]1/C=C\C=C(/C)C(=O)NC2=CC(=O)C(NCCN(C)C)=C(C[C@@H](C)C[C@H](OC)[C@H](O)[C@@H](C)/C=C(\C)[C@@H]1OC(=O)NO)C2=O | 18000 nM | 220 nM
CO[C@H]1/C=C\C=C(/C)C(=O)NC2=CC(=O)C(N3CCC3)=C(C[C@@H](C)C[C@H](OC)[C@H](O)[C@@H](C)/C=C(\C)[C@@H]1OC(=O)NO)C2=O | > 100000 nM | 640 nM
CO[C@H]1/C=C\C=C(/C)C(=O)NC2=CC(=O)C(NCCF)=C(C[C@@H](C)C[C@H](OC)[C@H](O)[C@@H](C)/C=C(\C)[C@@H]1OC(=O)NN)C2=O | > 100000 nM | 2100 nM
CO[C@H]1/C=C\C=C(/C)C(=O)NC2=CC(=O)C(NCCF)=C(C[C@@H](C)C[C@H](OC)[C@H](O)[C@@H](C)/C=C(\C)[C@@H]1OC(=O)NO)C2=O | > 100000 nM | 1500 nM
CO[C@H]1/C=C\C=C(/C)C(=O)NC2=CC(=O)C(N)=C(C[C@@H](C)C[C@H](OC)[C@H](O)[C@@H](C)/C=C(\C)[C@@H]1OC(=O)c1ccc[nH]1)C2=O | > 100000 nM | 1900 nM
CO[C@H]1/C=C\C=C(/C)C(=O)NC2=CC(=O)C(NCCN(C)C)=C(C[C@@H](C)C[C@H](OC)[C@H](O)[C@@H](C)/C=C(\C)[C@@H]1OC(=O)c1c[nH]cn1)C2=O | > 100000 nM | 1200 nM
CO[C@H]1/C=C\C=C(/C)C(=O)NC2=CC(=O)C(NCCN(C)C)=C(C[C@@H](C)C[C@H](OC)[C@H](O)[C@@H](C)/C=C(\C)[C@@H]1OC(=O)NN)C2=O | > 100000 nM | 140 nM
CO[C@H]1/C=C\C=C(/C)C(=O)NC2=CC(=O)C(NCCN(C)C)=C(C[C@@H](C)C[C@H](OC)[C@H](O)[C@@H](C)/C=C(\C)[C@@H]1OC(=O)NCCO)C2=O | > 100000 nM | 390 nM
CO[C@H]1/C=C\C=C(/C)C(=O)NC2=CC(=O)C(NCCN(C)C)=C(C[C@@H](C)C[C@H](OC)[C@H](O)[C@@H](C)/C=C(\C)[C@@H]1OC(=O)c1ccc[nH]1)C2=O | > 100000 nM | 410 nM
CO[C@H]1/C=C\C=C(/C)C(=O)NC2=CC(=O)C(NCCF)=C(C[C@@H](C)C[C@H](OC)[C@H](O)[C@@H](C)/C=C(\C)[C@@H]1OC(N)=O)C2=O | 800 nM | 
CO[C@H]1/C=C\C=C(/C)C(=O)NC2=CC(=O)C(N3CCC3)=C(C[C@@H](C)C[C@H](OC)[C@H](O)[C@@H](C)/C=C(\C)[C@@H]1OC(N)=O)C2=O | 1400 nM | 

Reference: ChEMBL document CHEMBL1143641, “Structure-based design of 7-carbamate analogs of geldanamycin” (Bioorg Med Chem Lett, 2005)
